Where “and” joins values, the source holds several entries; their conditions need not be identical. Equal entries are not always repeated.
Assays:
patients with ALGS = experiment: Phase 2 ICONIC trial, 48-week HRQoL analysis by ItchRO treatment response; type: in vivo, human; parameters: key to Beta, ItchRO treatment response at week 48 Yes vs No, PedsQL Generic Core Scale / Beta, ItchRO treatment response at week 48 Yes vs No, Family Impact Scale / Beta, ItchRO treatment response at week 48 Yes vs No, Multidimensional Fatigue Scale: regression beta in HRQoL score points (0-100 scale), responders vs not
Procedure: A retrospective analysis was performed of 48-week data from the Phase 2 ICONIC trial, a study with a 4-week double-blind, placebo-controlled, randomized drug withdrawal period in patients with ALGS. Patients had moderate to severe pruritus as measured using a validated caregiver-reported Itch Reported Outcome (ItchRO) severity assessment tool (0=none to 4=very severe). Clinically meaningful pruritus response was defined as a ≥1 point reduction in the ItchRO, from baseline to week 48. HRQoL was assessed using the Pediatric Quality of Life Inventory Generic Core (PedsQL; 0-100 scale, 100=best quality of life), Family Impact (FI), and Multidimensional Fatigue (MF) scale scores, and were collected via caregiver. The minimal clinically important difference (MCID) for the HRQoL assessments is 5 points. A subset of individual items from the HRQoL scales were also independently selected for assessment with treatment response. HRQoL scores and selected items were assessed at baseline and week 48 and stratified by treatment response status. P-values were calculated using t-tests or ANOVAs. Multivariate linear regression models were used to assess the relationship between the mean change from baseline in HRQoL score (dependent variable) and an indicator for treatment response (independent variable), adjusting for baseline HRQoL. Adjustment for additional baseline covariates was also explored for the following variables: age, gender, bilirubin, rifampicin use, height z-score, weight z-score, ItchRO, and serum bile acid.

[1] = tested on: patients with BSEP deficiency (PFIC2); experiment: INDIGO Phase 2 trial, HRQoL analysis by sBA treatment response at week 48; type: in vivo, human; parameters: key to HRQoL score at week 48, PedsQL Generic Core Scale / HRQoL score at week 48, Multidimensional Fatigue Scale / HRQoL score at week 48, Family Impact Scale: HRQoL scale scores in points; MCID = 5 points; key to Beta, sBA treatment response at week 48 Yes vs No, Multidimensional Fatigue Scale / Beta, sBA treatment response at week 48 Yes vs No, Family Impact Scale: change from baseline in HRQoL score, in points (MCID 5 points); conditions: for 5-point change, Family Impact Scale / 5-point change, Multidimensional Fatigue Scale / 5-point change, PedsQL Generic Core Scale / 10-point change, Family Impact Scale / 10-point change, Multidimensional Fatigue Scale / 10-point change, PedsQL Generic Core Scale: baseline to week 48; for HRQoL score at week 48, Family Impact Scale / HRQoL score at week 48, Multidimensional Fatigue Scale / HRQoL score at week 48, PedsQL Generic Core Scale / HRQoL score change from baseline to week 48, Family Impact Scale: mean ± SD
Procedure: This retrospective analysis included data from patients with BSEP deficiency from the INDIGO Phase 2 open-label trial of MRX in children with PFIC. Pruritus was measured using a validated caregiver-reported Itch Reported Outcome (ItchRO) severity assessment tool (0=none to 4=very severe). Serum bile acid (sBA) response with MRX was defined as a >75% decrease from baseline or reduction to <102 μmol/L from baseline to week 48. HRQoL was assessed using the Pediatric Quality of Life Inventory Generic Core (PedsQL), Family Impact (FI), and Multidimensional Fatigue (MF) scale scores, and were collected via caregiver. The minimal clinically important difference (MCID) for the HRQoL assessments is 5 points. A subset of individual items from the HRQoL scales were also selected for assessment with treatment response. HRQoL was assessed at baseline and week 48 and scores were stratified by treatment response. P-values were calculated using t-test or ANOVA. Multivariate linear regression models were used to assess the relationship between mean change from baseline in HRQoL score and indicators for treatment response, adjusting for baseline HRQoL.

[2] = over the 48 weeks, controlling for baseline score

**Q.** Which “HRQoL at Week 48 (mean ± SD), Family Impact Scale” value (patients with ALGS; ItchRO Non-Responders) does the source give for `CCCCC1(CCCC)CS(=O)(=O)c2ccc(N(C)C)cc2[C@@H](c2ccc(OCc3ccc(C[N+]45CCN(CC4)CC5)cc3)cc2)[C@H]1O` [maralixibat] here?
**A.** 54.7 ± 20.0

**Q.** And the “HRQoL at Week 48 (mean ± SD), Multidimensional Fatigue Scale” value (patients with ALGS; ItchRO Non-Responders)?
**A.** 64.2 ± 15.1

**Q.** And the “HRQoL at Week 48 (mean ± SD), PedsQL Generic Core Scale” value (patients with ALGS; ItchRO Non-Responders)?
**A.** 62.4 ± 14.5

**Q.** What about the “HRQoL change from baseline to Week 48 (mean ± SD), Family Impact Scale” value (patients with ALGS; ItchRO Non-Responders) of the same compound?
**A.** 3.9 ± 7.8

**Q.** And the “HRQoL change from baseline to Week 48 (mean ± SD), Multidimensional Fatigue Scale” value (patients with ALGS; ItchRO Non-Responders)?
**A.** −3.1 ± 19.8

**Q.** What about the “HRQoL change from baseline to Week 48 (mean ± SD), PedsQL Generic Core Scale” value (patients with ALGS; ItchRO Non-Responders) of the same compound?
**A.** 1.2 ± 11.1

**Q.** What about the “HRQoL at Week 48 (mean ± SD), Family Impact Scale” value (patients with ALGS; ItchRO Responders) of the same compound?
**A.** 73.9 ± 19.6

**Q.** And the “HRQoL at Week 48 (mean ± SD), Multidimensional Fatigue Scale” value (patients with ALGS; ItchRO Responders)?
**A.** 76.2 ± 15.1

**Q.** And the “HRQoL at Week 48 (mean ± SD), PedsQL Generic Core Scale” value (patients with ALGS; ItchRO Responders)?
**A.** 70.4 ± 15.7

**Q.** What about the “HRQoL change from baseline to Week 48 (mean ± SD), Family Impact Scale” value (patients with ALGS; ItchRO Responders) of the same compound?
**A.** 17.8 ± 23.4

**Q.** What about the “HRQoL change from baseline to Week 48 (mean ± SD), Multidimensional Fatigue Scale” value (patients with ALGS; ItchRO Responders) of the same compound?
**A.** 25.8 ±23.0

**Q.** What about the “HRQoL change from baseline to Week 48 (mean ± SD), PedsQL Generic Core Scale” value (patients with ALGS; ItchRO Responders) of the same compound?
**A.** 11.6 ± 20.3

**Q.** What about the “Beta, ItchRO treatment response at week 48 Yes vs No, Multidimensional Fatigue Scale” value (patients with ALGS; multivariate regression, adjusted for baseline HRQoL, N = 21, CI −2.49, 30.32) of the same compound?
**A.** 13.92

**Q.** And the “Beta, ItchRO treatment response at week 48 Yes vs No, Family Impact Scale” value (patients with ALGS; multivariate regression, adjusted for baseline HRQoL, N = 26, CI 1.01, 32.68)?
**A.** 16.85

**Q.** What about the “Beta, ItchRO treatment response at week 48 Yes vs No, PedsQL Generic Core Scale” value (patients with ALGS; multivariate regression, adjusted for baseline HRQoL, N = 27, CI −3.86, 21.38) of the same compound?
**A.** 8.76

**Q.** And the “HRQoL change from baseline to week 48 across all scales” value (patients with ALGS; non-responders, result in words)?
**A.** No clinically meaningful change

**Q.** And the “average increase of Family Impact score, responders compared with non-responders” value (patients with ALGS; over the 48 weeks, controlling for baseline FI score)?
**A.** 17 points and 16.9 points

**Q.** What about the “average increase of Multidimensional Fatigue total score, responders compared with non-responders” value (patients with ALGS; over the 48 weeks, p=0.11) of the same compound?
**A.** 13.9 points

**Q.** What about the “average increase of PedsQL Generic Core Total Scale Score, responders compared with non-responders” value (patients with ALGS; over the 48 weeks, p=0.19) of the same compound?
**A.** 8.8 points

**Q.** What about the “Difference in change from baseline to week 48, HRQoL item Difficulty steeping through the night” value (patients with ALGS; responders vs non-responders) of the same compound?
**A.** 52.9

**Q.** And the “Difference in change from baseline to week 48, HRQoL item Feeling tired” value (patients with ALGS; responders vs non-responders)?
**A.** 40.1

**Q.** What about the “Difference in change from baseline to week 48, HRQoL item Feeling tired upon waking” value (patients with ALGS; responders vs non-responders) of the same compound?
**A.** 72.4

**Q.** And the “Difference in change from baseline to week 48, HRQoL item Steeping a lot” value (patients with ALGS; responders vs non-responders)?
**A.** 55.2

**Q.** What about the “Difference in change from baseline to week 48, HRQoL item Taking a lot of naps” value (patients with ALGS; responders vs non-responders) of the same compound?
**A.** 40.4

**Q.** What about the “Difference in change from baseline to week 48, HRQoL item Trouble sleeping” value (patients with ALGS; responders vs non-responders) of the same compound?
**A.** 45.4

**Q.** What about the “pruritus at week 48 of the ICONIC study” value (patients with ALGS; result in words) of the same compound?
**A.** significant improvements in pruritus

**Q.** What about the “patients who achieved ItchRO treatment response (≥1 point reduction)” value (patients with ALGS; week 48, 27 patients) of the same compound?
**A.** 74%

**Q.** What about the “patients who achieved sBA treatment response” value ([1]; at 48 weeks) of the same compound?
**A.** 6 patients

**Q.** And the “patients who achieved sBA treatment response (>75% decrease from baseline or <102 μmol/L)” value ([1]; at 48 weeks)?
**A.** 28.6%

**Q.** And the “Beta, sBA treatment response at week 48 Yes vs No, Multidimensional Fatigue Scale” value ([1]; multivariate regression, N = 16, CI 3.5, 41.1)?
**A.** 22.3

**Q.** What about the “Beta, sBA treatment response at week 48 Yes vs No, Family Impact Scale” value ([1]; multivariate regression, N = 20, CI −7.7, 19.4) of the same compound?
**A.** 5.8

**Q.** And the “average increase of Multidimensional Fatigue scale score, sBA responders versus non-responders” value [1, 2]?
**A.** 22 points

**Q.** What about the “mean increase of PedsQL score, sBA responders versus non-responders” value [1, 2] of the same compound?
**A.** 17 points

**Q.** And the “5-point change, Family Impact Scale” value ([1]; sBA Non-responders)?
**A.** 1 (7.1) n (%)

**Q.** And the “5-point change, Multidimensional Fatigue Scale” value ([1]; sBA Non-responders)?
**A.** 3 (25.0) n (%)

**Q.** And the “5-point change, PedsQL Generic Core Scale” value ([1]; sBA Non-responders)?
**A.** 2 (15.4) n (%)

**Q.** And the “10-point change, Family Impact Scale” value ([1]; sBA Non-responders)?
**A.** 1 (7.1) n (%)

**Q.** And the “10-point change, Multidimensional Fatigue Scale” value ([1]; sBA Non-responders)?
**A.** 2 (16.7) n (%)

**Q.** What about the “10-point change, PedsQL Generic Core Scale” value ([1]; sBA Non-responders) of the same compound?
**A.** 2 (15.4) n (%)

**Q.** What about the “HRQoL score at week 48, Family Impact Scale” value ([1]; sBA Non-responders) of the same compound?
**A.** 62.7 ± 16.0

**Q.** What about the “HRQoL score at week 48, Multidimensional Fatigue Scale” value ([1]; sBA Non-responders) of the same compound?
**A.** 69.2 ± 18.5

**Q.** What about the “HRQoL score at week 48, PedsQL Generic Core Scale” value ([1]; sBA Non-responders) of the same compound?
**A.** 65.9 ± 13.8

**Q.** What about the “HRQoL score change from baseline to week 48, Family Impact Scale” value ([1]; sBA Non-responders) of the same compound?
**A.** −2.5 ± 9.8

**Q.** What about the “5-point change, Family Impact Scale” value ([1]; sBA Responders) of the same compound?
**A.** 4 (66.7) n (%)

**Q.** And the “5-point change, Multidimensional Fatigue Scale” value ([1]; sBA Responders)?
**A.** 4 (100) n (%)

**Q.** What about the “5-point change, PedsQL Generic Core Scale” value ([1]; sBA Responders) of the same compound?
**A.** 4 (80.0) n (%)

**Q.** And the “10-point change, Family Impact Scale” value ([1]; sBA Responders)?
**A.** 4 (66.7) n (%)

**Q.** What about the “10-point change, Multidimensional Fatigue Scale” value ([1]; sBA Responders) of the same compound?
**A.** 4 (100) n (%)

**Q.** And the “10-point change, PedsQL Generic Core Scale” value ([1]; sBA Responders)?
**A.** 3 (60.0) n (%)

**Q.** And the “HRQoL score at week 48, Family Impact Scale” value ([1]; sBA Responders)?
**A.** 60.0 ± 15.5

**Q.** What about the “HRQoL score at week 48, Multidimensional Fatigue Scale” value ([1]; sBA Responders) of the same compound?
**A.** 76.0 ± 13.4

**Q.** And the “HRQoL score at week 48, PedsQL Generic Core Scale” value ([1]; sBA Responders)?
**A.** 79.3 ± 9.5

**Q.** What about the “HRQoL score change from baseline to week 48, Family Impact Scale” value ([1]; sBA Responders) of the same compound?
**A.** 8.0 ± 20.7

**Q.** What about the “patients with a change of ≥5 points in PedsQL Generic Core Total Scale Score” value ([1]; sBA non-responders) of the same compound?
**A.** 15.4%

**Q.** What about the “patients with a ≥10-point change in PedsQL Multidimensional Fatigue Total Scale Score” value ([1]; sBA non-responders) of the same compound?
**A.** 16.7%

**Q.** What about the “change in Family Impact Score from baseline to week 48” value ([1]; sBA responders) of the same compound?
**A.** > 1.5 times the MCID

**Q.** And the “patients with a change of ≥5 points in PedsQL Generic Core Total Scale Score” value ([1]; sBA responders)?
**A.** 80.0%

**Q.** And the “patients with a ≥10-point change in PedsQL Multidimensional Fatigue Total Scale Score” value ([1]; sBA responders)?
**A.** 100%
